Where two headings read alike, the source gives them in different places.
Columns and labels:
[1] = tested on: MCF-7 human breast adenocarcinoma cells; assay: Sulforhodamine B (SRB) cell proliferation assay, MCF-7; type: cell-based
Protocol: (§1) The cytotoxic effect (IC50 values, Table 4) was determined from dose–response curves.
(§2) Royleanones and doxorubicin (Doxo) were tested on human breast adenocarcinoma lines. […] HFF‐1 cells were cultured in DMEM/F‐12 supplemented with 10% FBS. All cells were maintained at 37 °C in a humidified atmosphere of 5% CO2. Cells were routinely tested for mycoplasma infection using the MycoAlert™ PLUS mycoplasma detection kit (Lonza).
(§3) For the evaluation of the effect of the compounds on cell proliferation, the SRB assay was performed. […] Cells were treated for 48 h with serial dilutions of the compounds (ranging from 0.1 to 30.0 µM). The effects on cell proliferation were assessed by SRB assay, as described, and IC50 values were determined for each cell line using the GraphPad Prism software version 7.0 (La Jolla, CA, USA).

[2] = tested on: non-tumorigenic foreskin fibroblasts HFF-1 cells; assay: Sulforhodamine B (SRB) cell proliferation assay, HFF-1; type: cell-based, human
Protocol: as §1, §2, §3

[3] = tested on: MDA-MB-468 human breast adenocarcinoma cells; assay: Sulforhodamine B (SRB) cell proliferation assay, MDA-MB-468; type: cell-based
Protocol: as §1, §2, §3

[4] = tested on: MDA-MB-231 human breast adenocarcinoma cells; assay: Sulforhodamine B (SRB) cell proliferation assay, MDA-MB-231; type: cell-based
Protocol: as §1, §2, §3

PKC-ζ = biological target: T1, PKC-ζ (Mus musculus, UniProt Q02956); assay: Yeast PKC assay, PKC-ζ; type: cell-based
T1 construct: expressed in transfected cells; host or cells: Saccharomyces cerevisiae
T1 sequence (Q02956 1-592): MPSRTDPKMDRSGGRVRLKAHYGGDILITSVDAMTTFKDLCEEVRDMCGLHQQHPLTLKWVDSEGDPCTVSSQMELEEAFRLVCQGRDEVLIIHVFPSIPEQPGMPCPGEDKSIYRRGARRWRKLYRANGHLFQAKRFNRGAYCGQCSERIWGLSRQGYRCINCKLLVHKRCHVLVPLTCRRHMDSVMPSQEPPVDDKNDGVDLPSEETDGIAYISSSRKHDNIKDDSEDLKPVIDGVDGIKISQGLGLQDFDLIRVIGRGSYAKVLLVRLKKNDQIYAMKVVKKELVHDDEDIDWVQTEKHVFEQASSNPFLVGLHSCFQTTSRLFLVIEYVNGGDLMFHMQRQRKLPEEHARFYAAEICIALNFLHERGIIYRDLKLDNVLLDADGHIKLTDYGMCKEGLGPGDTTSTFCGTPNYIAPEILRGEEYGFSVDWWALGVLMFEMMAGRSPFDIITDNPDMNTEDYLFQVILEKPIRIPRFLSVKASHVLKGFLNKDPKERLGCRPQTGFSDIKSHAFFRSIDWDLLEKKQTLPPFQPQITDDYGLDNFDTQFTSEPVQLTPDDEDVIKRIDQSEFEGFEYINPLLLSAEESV
Source text: (§4) PKC isoforms are key targets for cancer therapy due to their significant roles in cancer development and progression. The selective-PKC-δ activation observed for RoyBz is well established. Nonetheless, it is important to understand the effect of Roy on PKC isoforms. Due to the specificity of the assay, it was decided to evaluate only few compounds: the natural ones Roy and DeRoy and two derivatives, one aromatic ester RoyBz and one aliphatic ester RoyPr[27] as PKC-α, -βI, -δ, -ε, and -ζ activators using the yeast PKC assay.
(§5) For the determination of EC50 values were considered the concentration of compound that caused 50% of the maximal growth inhibition caused by the positive controls (phorbol 12-myristate 13-acetate, PMA, for cPKCs and nPKCs; arachidonic acid, ARA, for PKCζ), which was set as 100%. Data are mean ± SEM of four independent experiments. nt, not tested; ND, non-determinable (when the maximal response achieved was lower than 50% growth inhibition).
(§6) The royleanones Roy, RoyBz and RoyPr were tested on the yeast assay as reported in[3]. Briefly, Saccharomyces cerevisiae cells individually expressing mammalian PKC-α, -βI, -δ, -ε, or -ζ, and control yeast (transformed with empty vector) obtained in previous works were used. Cells were grown in galactose selective medium in the presence of 0.1—30 μM of compounds (or 0.1% DMSO only) for approximately 42 h. Yeast growth was analyzed by counting the number of colony-forming units, after 2 days incubation at 30 °C. The growth of yeast transformed with the empty vector (control) was considered as 100%. From the dose–response curves obtained, EC50 (half maximal effective concentration) values were determined for the tested compounds.

PKC-βI = biological target: T2, PKC-βI (Rattus norvegicus, UniProt P68403); assay: Yeast PKC assay, PKC-βI; type: cell-based, yeast (Saccharomyces cerevisiae)
T2 construct: expressed in transfected cells; host or cells: Saccharomyces cerevisiae
Source text: as §4, §5, §6

PKC-ε = biological target: T3, PKC-ε (Homo sapiens, UniProt Q02156); assay: Yeast PKC assay, PKC-ε; type: cell-based
T3 construct: expressed in transfected cells; host or cells: Saccharomyces cerevisiae
T3 sequence (Q02156 1-737): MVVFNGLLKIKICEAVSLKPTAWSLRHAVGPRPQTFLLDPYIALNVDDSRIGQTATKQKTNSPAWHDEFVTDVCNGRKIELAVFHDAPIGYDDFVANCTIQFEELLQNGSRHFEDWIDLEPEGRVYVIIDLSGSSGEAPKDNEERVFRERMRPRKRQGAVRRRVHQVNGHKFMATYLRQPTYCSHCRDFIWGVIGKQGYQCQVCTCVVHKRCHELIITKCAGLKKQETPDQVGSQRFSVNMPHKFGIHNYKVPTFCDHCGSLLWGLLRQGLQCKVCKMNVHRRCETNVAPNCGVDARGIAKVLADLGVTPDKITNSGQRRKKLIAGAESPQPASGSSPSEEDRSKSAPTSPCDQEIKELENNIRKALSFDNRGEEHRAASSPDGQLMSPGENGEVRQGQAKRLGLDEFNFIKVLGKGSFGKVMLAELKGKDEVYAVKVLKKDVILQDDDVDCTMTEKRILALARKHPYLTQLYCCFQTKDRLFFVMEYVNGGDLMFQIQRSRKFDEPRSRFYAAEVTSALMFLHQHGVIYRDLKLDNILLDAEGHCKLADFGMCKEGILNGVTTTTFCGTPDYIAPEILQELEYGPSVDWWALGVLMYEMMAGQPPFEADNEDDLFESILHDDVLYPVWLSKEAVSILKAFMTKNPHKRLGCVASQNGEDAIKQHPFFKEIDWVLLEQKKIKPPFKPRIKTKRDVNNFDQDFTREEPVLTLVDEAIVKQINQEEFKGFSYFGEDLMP
Source text: as §4, §5, §6

PKC-α = biological target: T4, PKC-α (Bos taurus, UniProt P04409); assay: Yeast PKC assay, PKC-α; type: cell-based, yeast (Saccharomyces cerevisiae)
T4 construct: expressed in transfected cells; host or cells: Saccharomyces cerevisiae
Source text: as §4, §5, §6

[5] = tested on: MCF-7 human breast adenocarcinoma cells; settings: cited from earlier work
PKC-δ [6] = biological target: T5, PKC-δ (Rattus norvegicus, UniProt P09215); assay: Yeast PKC assay, PKC-δ; type: cell-based
T5 construct: expressed in transfected cells; host or cells: Saccharomyces cerevisiae
Source text: as §4, §5, §6

PKC-δ [7] = biological target: T5, PKC-δ; parameters: method as in PMID 29348560; settings: yeast PKC assay; cited from earlier work
[8] = Homo sapiens, MCF7, 48 h treatment
[9] = Homo sapiens, HFF-1, 48 h treatment
[10] = Homo sapiens, MDA-MB-468, 48 h treatment
[11] = Homo sapiens, MDA-MB-231, 48 h treatment
[12] = yeast growth inhibition, 50% of maximal effect of ARA, mean ± SEM, four experiments, ND = maximal response lower than 50% growth inhibition, read-out: EC50 (nM) PKC-ζ
[13] = yeast growth inhibition, 50% of maximal effect of PMA, mean ± SEM, four experiments, ND = maximal response lower than 50% growth inhibition, read-out: EC50 (nM) PKC-βI
[14] = Homo sapiens, MDA-MB-468, 48 h, 48 h treatment
[15] = Homo sapiens, MDA-MB-231, 48 h, 48 h treatment
[16] = yeast growth inhibition, 50% of maximal effect of PMA, mean ± SEM, four experiments, ND = maximal response lower than 50% growth inhibition, read-out: EC50 (nM) PKC-ε
[17] = yeast growth inhibition, 50% of maximal effect of PMA, mean ± SEM, four experiments, ND = maximal response lower than 50% growth inhibition, read-out: EC50 (nM) PKC-α
[18] = yeast growth inhibition, 50% of maximal effect of PMA, mean ± SEM, four experiments, ND = maximal response lower than 50% growth inhibition, read-out: EC50 (nM) PKC-δ

T5 sequence (P09215 whole entry): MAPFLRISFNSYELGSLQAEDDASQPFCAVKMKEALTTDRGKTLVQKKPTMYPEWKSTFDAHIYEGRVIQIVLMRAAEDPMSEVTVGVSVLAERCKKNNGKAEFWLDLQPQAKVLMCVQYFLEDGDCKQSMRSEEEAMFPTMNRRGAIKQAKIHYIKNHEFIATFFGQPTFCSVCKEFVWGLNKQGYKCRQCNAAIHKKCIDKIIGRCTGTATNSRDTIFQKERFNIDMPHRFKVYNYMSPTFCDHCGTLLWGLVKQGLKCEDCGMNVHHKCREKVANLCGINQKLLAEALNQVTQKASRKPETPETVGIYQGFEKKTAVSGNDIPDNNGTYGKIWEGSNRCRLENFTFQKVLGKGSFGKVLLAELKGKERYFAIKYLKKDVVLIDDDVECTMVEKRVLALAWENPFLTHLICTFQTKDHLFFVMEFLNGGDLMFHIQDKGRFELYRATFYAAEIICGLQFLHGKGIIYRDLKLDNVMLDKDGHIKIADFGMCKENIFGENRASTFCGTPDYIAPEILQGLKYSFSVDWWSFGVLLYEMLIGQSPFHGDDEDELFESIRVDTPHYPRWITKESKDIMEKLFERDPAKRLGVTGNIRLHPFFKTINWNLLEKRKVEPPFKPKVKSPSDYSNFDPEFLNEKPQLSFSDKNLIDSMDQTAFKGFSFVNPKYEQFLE
T2 sequence (P68403 whole entry): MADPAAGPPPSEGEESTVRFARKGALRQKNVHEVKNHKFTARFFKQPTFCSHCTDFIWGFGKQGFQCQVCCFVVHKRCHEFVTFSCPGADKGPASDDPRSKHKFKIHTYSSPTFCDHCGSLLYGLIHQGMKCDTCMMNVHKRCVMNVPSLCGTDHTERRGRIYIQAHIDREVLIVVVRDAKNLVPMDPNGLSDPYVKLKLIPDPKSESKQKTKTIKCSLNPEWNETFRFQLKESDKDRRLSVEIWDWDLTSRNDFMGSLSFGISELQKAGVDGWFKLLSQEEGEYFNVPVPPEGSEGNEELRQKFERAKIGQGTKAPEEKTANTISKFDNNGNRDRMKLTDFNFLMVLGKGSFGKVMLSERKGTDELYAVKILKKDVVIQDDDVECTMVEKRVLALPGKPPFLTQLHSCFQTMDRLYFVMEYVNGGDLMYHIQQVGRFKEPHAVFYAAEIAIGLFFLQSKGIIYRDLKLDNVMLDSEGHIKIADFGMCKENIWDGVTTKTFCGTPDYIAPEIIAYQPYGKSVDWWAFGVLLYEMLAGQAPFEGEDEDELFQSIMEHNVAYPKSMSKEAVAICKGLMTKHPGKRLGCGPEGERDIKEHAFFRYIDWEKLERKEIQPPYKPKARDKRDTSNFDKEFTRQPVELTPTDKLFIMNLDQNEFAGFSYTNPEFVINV

COc1cccc2c1C(=O)c1c(O)c3c(c(O)c1C2=O)C[C@@](O)(C(=O)CO)C[C@@H]3O[C@H]1C[C@H](N)[C@H](O)[C@H](C)O1 [Doxo, Doxorubicin, reference compound]
IC50 [1, 8]: 0.6 ± 0.01 µM | IC50 [2, 9]: 100 ± 120 nM | IC50 [3, 10]: 300 ± 40 nM | IC50 [4, 11]: 1200 ± 50 nM

CCCCC/C=C\C/C=C\C/C=C\C/C=C\CCCC(=O)O [ARA, arachidonic acid, reference compound]
EC50 (PKC-ζ; [12]): 205 ± 32.6 nM

CC(=O)OC1C2=C(C(=O)C(O)=C(C(C)C)C2=O)C2(C)CCCC(C)(C)C2C1O (stereo not drawn) [Roy, 7α-acetoxy-6β-hydroxyroyleanone]
IC50 [1, 8]: 2.09 ± 0.42 µM | EC50 (PKC-ζ; [12]): 4110 ± 159 nM | EC50 (PKC-βI; [13]): 423 ± 67 nM | IC50 [2, 9]: 1020 ± 280 nM | IC50 ([3]; 48 h treatment): 300 ± 160 nM | IC50 [3, 14]: 350 nM | IC50 ([4]; 48 h treatment): 350 ± 120 nM | IC50 [4, 15]: 300 nM | EC50 (PKC-ε; [16]): 994 ± 63 nM | EC50 (PKC-α; [17]): 350 ± 42 nM

CC(C)C1=C(O)C(=O)C2=C(C=C[C@H]3C(C)(C)CCC[C@]23C)C1=O [DeRoy, 6,7-dehydroroyleanone]
EC50 (PKC-ζ): 43.8 ± 2.32 nM | IC50 [5]: 60.4 ± 3.69 µM | EC50 (PKC-ε; [16]): 5.8 ± 0.7 nM | EC50 (PKC-α; [17]): 15 ± 1.9 nM | EC50 (PKC-δ [6]; [18]): 3.1 ± 0.6 nM

CC(=O)OC1=C(C(C)C)C(=O)C2=C(C1=O)C1(C)CCCC(C)(C)C1C(O)C2OC(C)=O (stereo not drawn) [Roy-12-Ac, 7α-acetoxy-6β-hydroxy-12-O-acetylroyleanone]
IC50 ([1]; 48 h treatment): 5.67 ± 0.24 µM | IC50 ([2]; 48 h treatment): 600 ± 40 nM | IC50 ([3]; 48 h treatment): 1600 ± 160 nM | IC50 ([4]; 48 h treatment): 2430 ± 150 nM

CCCCCCCCCCCCCC(=O)O[C@@H]1[C@@H](C)[C@@]2(O)[C@@H](C=C(CO)C[C@]3(O)C(=O)C(C)=C[C@@H]23)[C@@H]2C(C)(C)[C@]12OC(C)=O [PMA, phorbol 12-myristate 13-acetate, reference compound]
EC50 (PKC-βI): 243 ± 69.1 nM | EC50 (PKC-ε): 1680 ± 46.5 nM | EC50 (PKC-α): 112 ± 18.4 nM | EC50 (PKC-δ [6]): 574 ± 36.7 nM

CC(=O)O[C@H]1C2=C(C(=O)C(OC(=O)c3ccccc3)=C(C(C)C)C2=O)[C@@]2(C)CCCC(C)(C)[C@@H]2[C@@H]1O [Roy-12-Bz, 7α-acetoxy-6β-hydroxy-12-O-benzoylroyleanone]
IC50 [1, 8]: 4.32 ± 0.24 µM | IC50 [2, 9]: 1160 ± 220 nM | IC50 [3, 14]: 1280 nM | IC50 [4, 15]: 1650 ± 150 nM

CC(C)C1=C(O)C(=O)C2=C(C1=O)[C@H](O)[C@@H](O)[C@H]1C(C)(C)CCC[C@]21C [DiRoy, 6β,7α-dihydroxyroyleanone]
IC50 [1, 8]: > 20 µM | IC50 [3, 14]: > 20000 nM | IC50 [4, 15]: > 20000 nM

CCC(=O)OC1=C(C(C)C)C(=O)C2=C(C1=O)C1(C)CCCC(C)(C)C1C(OC(=O)CC)C2OC(C)=O (stereo not drawn) [RoyPr, 7α-acetoxy-6β-propanoyloxy-12-O-propanoylroyleanone]
IC50 [5]: 28.3 ± 2.4 µM | EC50 (PKC-βI; [13]): 229 ± 21 nM | EC50 (PKC-ε; [16]): 770 ± 46 nM | EC50 (PKC-α; [17]): 195 ± 16 nM | EC50 (PKC-δ [6]; [18]): 325 ± 49 nM

CC(=O)O[C@H]1C2=C(C(=O)C(OC(=O)c3ccccc3)=C(C(C)C)C2=O)[C@@]2(C)CCCC(C)(C)[C@@H]2[C@@H]1OC(=O)c1ccccc1 [RoyBz, 7α-acetoxy-6β-benzoyloxy-12-O-benzoylroyleanone]
IC50 [1, 8]: 1.66 ± 0.1 µM | IC50 [2, 9]: 3580 ± 270 nM | IC50 [3, 10]: 1400 ± 80 nM | EC50 (PKC-δ [7]): 108 nM | IC50 [4, 11]: 1500 ± 850 nM

CC(=O)OC1=C(C(C)C)C(=O)C2=C(C1=O)C1(C)CCCC(C)(C)C1C(OC(C)=O)C2OC(C)=O (stereo not drawn) [RoyAc, 7α,6β-diacetoxy-12-O-acetylroyleanone]
IC50 ([1]; 48 h treatment): 4.25 ± 0.57 µM | IC50 ([2]; 48 h treatment): 4970 ± 340 nM | IC50 ([3]; 48 h treatment): 3250 ± 200 nM | IC50 ([4]; 48 h treatment): 1860 ± 90 nM

— PMC11266714, “Extraction optimization and reactivity of 7α-acetoxy-6β-hydroxyroyleanone and ability of its derivatives to modulate PKC isoforms” (Scientific Reports, 2024)
